Measured values taken from US6660752B2, “2,6-Substituted chroman derivatives useful as beta-3 adrenoreceptor agonists” (Bayer Pharmaceuticals Corporation, priority 2001, dated 2003).
pEC50: −log10 of the molar value. Where a name gives a salt, the structure may show the parent alone.

Molecular target: T1, human beta-3-adrenergic receptor (Homo sapiens, UniProt P13945)
T1 construct: stably express full-length human beta-3-adrenergic receptor; expressed in transfected cells; host or cells: Chinese hamster ovary (CHO) cells
T1 sequence (P13945 whole entry): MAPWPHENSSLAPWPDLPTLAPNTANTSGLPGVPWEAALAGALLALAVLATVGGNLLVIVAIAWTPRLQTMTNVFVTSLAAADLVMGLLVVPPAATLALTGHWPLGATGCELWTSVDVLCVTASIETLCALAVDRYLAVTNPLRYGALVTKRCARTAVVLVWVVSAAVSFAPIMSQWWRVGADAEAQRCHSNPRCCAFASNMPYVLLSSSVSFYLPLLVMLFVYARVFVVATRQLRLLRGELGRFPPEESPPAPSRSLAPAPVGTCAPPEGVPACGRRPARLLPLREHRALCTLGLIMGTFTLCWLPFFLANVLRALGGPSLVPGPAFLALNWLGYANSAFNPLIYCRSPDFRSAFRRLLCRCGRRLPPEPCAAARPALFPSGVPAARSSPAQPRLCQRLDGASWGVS
Assay: cAMP production (beta-3 agonist activity) in CHO cells stably expressing human beta-3-adrenergic receptor, cAMP SPA
Assay type: cell-based
Details: CHO cells expressing full-length human beta-3-adrenergic receptor, 30 min incubation, 10 μM to 3 nM, read-out: Beta-3 Agonistic Activity: Compounds with EC50 values >1 μM
Protocol: Chinese hamster ovary (CHO) cells that stably express full-length human beta-3-adrenergic receptor (Granneman et al., Mol. Pharmacol. 44:264-270, 1993) can be used in the following procedure. The cell line is grown in 90% F12 nutrient mixture (HAM), 10% fetal bovine serum, 100 units/ml penicillin G sodium, […] streptomycin sulfate, and 2 mM L-glutamine at 37° C. in 95% air and 5% CO2. The transfected cell line is maintained with G-418 (800 μg/ml).
To test the agonist activity, cells are exposed to test compound and then assayed for cAMP production. CHO cells (100 μl) are plated at 5×10^4 cells/well of a 96-well plate (Costar, Cambridge, Mass.) to achieve 70% confluency the next day. After overnight incubation at 37° C., media is removed and the cells are treated for 30 minutes at 37° C. with KRP buffer (120 mM NaCl, 5.1 mM KCl, 0.6 mM MgSO4.7H2O, 0.8 mM CaCl2.H2O, […] phosphate buffer, […] Hepes pH 7.4)+[…] IBMX ([…]), +1% DMSO, +/− test compounds ([…]). Test compounds are assayed from 10 μM to 3 nM with 3-fold serial dilutions. The control agonist, isoproterenol (10 mM stock in 1.1 mM ascorbate), is assayed by 3-fold dilution beginning at 1 μM. After a 30-minute incubation with the test compounds, the buffer/compound mixture is removed. The cells are lysed and cAMP levels are measured using the cAMP SPA screening assay system (Amersham, Arlington Heights, Ill.). The cAMP values are then plotted to determine the EC50 of each compound tested.

| pEC50 | SMILES |
| --- | --- |
| < 6.00 | Nc1ccc([C@@H](O)CNC[C@H]2CCc3cc(C(=O)N4CCC[C@H]4C(=O)O)ccc3O2)cn1 [Example 363] |
| < 6.00 | Nc1ccc([C@@H](O)CNC[C@H]2CCc3cc(C(=O)N4CCC[C@@H]4C(=O)O)ccc3O2)cn1 [Example 367] |
| < 6.00 | COc1cccc(-c2ccc3c(c2)CC[C@H](CNC[C@H](O)c2cccnc2)O3)c1 [Example 43] |

Same assay, conditions: CHO cells expressing full-length human beta-3-adrenergic receptor, 30 min incubation, 10 μM to 3 nM, read-out: Beta-3 Agonistic Activity: Compounds with EC50 values ≦1 μM

| pEC50 | SMILES |
| --- | --- |
| ≥ 6.00 | O=S(=O)(Nc1ncccn1)c1cccc(-c2ccc3c(c2)CC[C@H](CNC[C@H](O)c2cccnc2)O3)c1 [Example 261, 3-[(2R)-2-({[(2R)-2-hydroxy-2-(3-pyridinyl)ethyl]amino}methyl)-3,4-dihydro-2H-chromen-6-yl]-N-(2-pyrimidinyl)benzenesulfonamide] |
| ≥ 6.00 | O=C(O)c1ccc(CCc2ccc3c(c2)CCC(CNC[C@H](O)c2cccnc2)O3)cc1 (stereo in doubt) [Example 215, 4-{2-[(2S)-2-({[(2R)-2-hydroxy-2-(3-pyridinyl)ethyl]amino}methyl)-3,4-dihydro-2H-chromen-6-yl]ethyl}benzoic Acid] |
| ≥ 6.00 | O=C(CS(=O)(=O)c1ccccc1)c1ccc(-c2ccc3c(c2)CC[C@H](CNC[C@H](O)c2cccnc2)O3)cc1 [Example 308, 1-{4-[(2R)-2-({[(2R)-2-hydroxy-2-(3-pyridinyl)ethyl]amino}methyl)-3,4-dihydro-2H-chromen-6-yl]phenyl}-2-(phenylsulfonyl)ethanone Dihydrochloride] |
| ≥ 6.00 | CS(=O)(=O)Nc1ccc(-c2ccc3c(c2)CC[C@H](CNC[C@H](O)c2cccnc2)O3)nc1 [Example 321, N-{6-[(2R)-2-({[(2R)-2-hydroxy-2-(3-pyridinyl)ethyl]amino}methyl)-3,4-dihydro-2H-chromen-6-yl]-3-pyridinyl}methanesulfonamide] |
| ≥ 6.00 | N#Cc1cc([N+](=O)[O-])ccc1NS(=O)(=O)c1cccc(-c2ccc3c(c2)CC[C@H](CNC[C@H](O)c2cccnc2)O3)c1 [Example 259, N-(2-cyano-4-nitrophenyl)-3-[(2R)-2-({[(2R)-2-hydroxy-2-(3-pyridinyl)ethyl]amino}methyl)-3,4-dihydro-2H-chromen-6-yl]benzenesulfonamide] |
| ≥ 6.00 | COc1cc(OC)nc(NS(=O)(=O)c2ccc(-c3ccc4c(c3)CC[C@H](CNC[C@H](O)c3cccnc3)O4)cc2)n1 [Example 267] |
| ≥ 6.00 | Nc1ccc([C@@H](O)CNC[C@H]2CCc3cc(-c4ccc(-c5nnn[nH]5)cc4)ccc3O2)cn1 [Example 384, (1R)-1-(6-amino-3-pyridinyl)-2-[({(2R)-6-[4-(1H-tetraazol-5-yl)phenyl]-3,4-dihydro-2H-chromen-2-yl}methyl)amino]ethanol] |
| ≥ 6.00 | Nc1ccc([C@@H](O)CNC[C@H]2CCc3cc(-c4cccc(C(=O)O)c4)ccc3O2)cn1 [Example 386, 3-[(2R)-2-({[(2R)-2-(6-amino-3-pyridinyl)-2-hydroxyethyl]amino}methyl)-3,4-dihydro-2H-chromen-6-yl]benzoic Acid] |
| ≥ 6.00 | NS(=O)(=O)c1ccc(-c2ccc3c(c2)CC[C@H](CNC[C@H](O)c2cccnc2)O3)cc1 [Example 325, 4-[(2R)-2-({[(2R)-2-hydroxy-2-(3-pyridinyl)ethyl]amino}methyl)-3,4-dihydro-2H-chromen-6-yl]benzenesulfonamide] |
| ≥ 6.00 | O=C(NS(=O)(=O)c1ccc(-c2ccc3c(c2)CC[C@H](CNC[C@H](O)c2cccnc2)O3)cc1)C(C(F)(F)F)C(F)(F)F [Example 288] |
| ≥ 6.00 | O=C(Nc1ccccc1F)NS(=O)(=O)c1cccc(-c2ccc3c(c2)CC[C@H](CNC[C@H](O)c2cccnc2)O3)c1 [Example 336] |
| ≥ 6.00 | Cc1ccc(C(=O)NS(=O)(=O)c2cccc(-c3ccc4c(c3)CC[C@H](CNC[C@H](O)c3cccnc3)O4)c2)cc1 [Example 299] |
| ≥ 6.00 | O[C@@H](CNC[C@H]1CCc2cc(I)ccc2O1)c1cccnc1 [Example 36, (1R)-2-({[(2R)-6-iodo-3,4-dihydro-2H-chromen-2-yl]methyl}amino)-1-(3-pyridinyl)ethanol] |
| ≥ 6.00 | COc1ccc(-c2ccc3c(c2)CC[C@H](CNC[C@H](O)c2cccnc2)O3)cc1S(=O)(=O)Nc1ccc(C(C)=O)cc1 [Example 280] |
| ≥ 6.00 | O=S(=O)(Nc1nccs1)c1ccc(-c2ccc3c(c2)CC[C@H](CNC[C@H](O)c2cccnc2)O3)cc1 [Example 265, 4-[(2R)-2-({[(2R)-2-hydroxy-2-(3-pyridinyl)ethyl]amino}methyl)-3,4-dihydro-2H-chromen-6-yl]-N-(1,3-thiazol-2-yl)benzenesulfonamide] |
| ≥ 6.00 | Cc1ccc(C(=O)NS(=O)(=O)c2ccc(-c3ccc4c(c3)CC[C@H](CNC[C@H](O)c3cccnc3)O4)cc2)cc1 [Example 296] |
| ≥ 6.00 | N#Cc1ccc(NS(=O)(=O)c2ccc(-c3ccc4c(c3)CC[C@H](CNC[C@H](O)c3cccnc3)O4)cc2OC(F)(F)F)cc1 [Example 262, N-(4-cyanophenyl)-4-[(2R)-2-({[(2R)-2-hydroxy-2-(3-pyridinyl)ethyl]amino}methyl)-3,4-dihydro-2H-chromen-6-yl]-2-(trifluoromethoxy)benzenesulfonamide] |
| ≥ 6.00 | O=C(CC(F)(F)F)NS(=O)(=O)c1ccc(-c2ccc3c(c2)CC[C@H](CNC[C@H](O)c2cccnc2)O3)cc1 [Example 284, 4-[(2R)-2-({[(2R)-2-hydroxy-2-(3-pyridinyl)ethyl]amino}methyl)-3,4-dihydro-2H-chromen-6-yl]-N-(3,3,3-trifluoropropanoyl)benzenesulfonamide] |
| ≥ 6.00 | Cc1ccc(Oc2cc(-c3ccc4c(c3)CC[C@H](CNC[C@H](O)c3cccnc3)O4)ccc2C(=O)O)cc1 [Example 195, 4-[(2R)-2-({[(2R)-2-hydroxy-2-(3-pyridinyl)ethyl]amino}methyl)-3,4-dihydro-2H-chromen-6-yl]-2-(4-methylphenoxy)benzoic acid] |
| ≥ 6.00 | Cc1ccc(NC(=O)NS(=O)(=O)c2ccc(-c3ccc4c(c3)CC[C@H](CNC[C@H](O)c3cccnc3)O4)cc2)cc1 [Example 326, 3-((1R)-1-hydroxy-2-{[((2R)-6-{4-[({[(4-methylphenyl)amino]carbonyl}amino)sulfonyl]phenyl}-3,4-dihydro-2H-chromen-2-yl)methyl]amino}ethyl)pyridine] |
| ≥ 6.00 | CC(=O)Nc1ccc(-c2ccc3c(c2)CC[C@H](CNC[C@H](O)c2cccnc2)O3)nc1 [Example 323] |
| ≥ 6.00 | CC(C)C(=O)NS(=O)(=O)c1ccc(-c2ccc3c(c2)CC[C@H](CNC[C@H](O)c2cccnc2)O3)cc1 [Example 290] |
| ≥ 6.00 | O=C(NS(=O)(=O)c1ccc(-c2ccc3c(c2)CC[C@H](CNC[C@H](O)c2cccnc2)O3)cc1)c1ccccc1 [Example 294, N-benzoyl-4-[(2R)-2-({[(2R)-2-hydroxy-2-(3-pyridinyl)ethyl]amino}methyl)-3,4-dihydro-2H-chromen-6-yl]benzenesulfonamide] |
| ≥ 6.00 | O=C(O)c1ccc(-c2ccc3c(c2)CC[C@H](CNC[C@H](O)c2cccnc2)O3)cc1Oc1ccccc1 [Example 192, 4-[(2R)-2-({[(2R)-2-hydroxy-2-(3-pyridinyl)ethyl]amino}methyl)-3,4-dihydro-2H-chromen-6-yl]-2-(phenyloxy)benzoic Acid] |
| ≥ 6.00 | O=C(NS(=O)(=O)c1cccc(-c2ccc3c(c2)CCC(CNC[C@H](O)c2cccnc2)O3)c1)c1ccc(Cl)cc1 (stereo partly shown) [Example 301] |
